Data reported in US20250051361A1, “5,6,7,8-TETRAHYDRO-2,6-NAPHTHYRIDINE DERIVATIVES AS CANCER THERAPEUTICS” (VRise Therapeutics, Inc., priority 2021, published 2025).
pIC50: −log10 of the molar value. Where a name gives a salt, the structure may show the parent alone.

Assays:
[1] = system: HPAC cells; test: In vitro cell proliferation assay in HPAC cell line; type: cell-based; settings: Homo sapiens; for inhibition at 3 µM: TC1: Test Concentration of 3 uM; for inhibition at 10 µM: TC2: Test Concentration of 10 uM
Method: (§1) Test 1: In Vitro Cell Proliferation Assay in HPAC and AGS Cell Lines
(§2) Growth inhibition assays was carried out using 10% FBS supplemented media. Cells are to be seeded at a concentration of 2000-3,000 cells/well in a 96-well plate. Test compounds at a concentration range from 0.1 to 30 uM will be added after 24 hours. Growth will be assessed using the MTT or CCK-8 kit for measuring reduction at 0 h (prior to the addition of the test compound) and 72 to 96 hours after the addition of test compound. Absorbance read on a BIO-RAD iMark Microplate or any equivalent micloplate reader at a wavelength of 450 nm to 600 nm. Data will be analyzed and percent inhibition due to the test compound compared to the control is calculated accordingly.

[2] = target: T1, human KRAS G12D protein (Homo sapiens, UniProt P01116, G12D); test: HTRF-based nucleotide exchange assay detecting GTP binding to K-Ras; type: biochemical; settings: human KRAS G12D (amino acid 2-169), SOS1 mediated exchange
T1 construct: A human KRAS G12D protein (corresponding to amino acid 2-169)
T1 sequence (P01116 2-169 isoform P01116-2 G12D): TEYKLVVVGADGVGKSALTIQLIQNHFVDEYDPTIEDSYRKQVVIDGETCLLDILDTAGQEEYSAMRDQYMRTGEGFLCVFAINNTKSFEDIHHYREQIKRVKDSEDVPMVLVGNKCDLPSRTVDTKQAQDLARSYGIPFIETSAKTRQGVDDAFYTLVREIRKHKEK
Method: Test 3: Nucleotide Exchange Assay HTRF-based nucleotide exchange assay detecting GTP binding to K-Ras A human KRAS G12D protein (corresponding to amino acid 2-169) was mixed with a a-GST Tb antibody (1.5× solution) and 10 uL of the solution was added to the reaction wells). Compounds (each 10 concentrations or any other concentration of choice at 3-fold or fold of choice for serial dilutions with a starting concentration of […] or or 100 μM or 50 uM) were then delivered to the reaction wells using acoustic dispenser (Echo, Labcyte) and incubated with the Kras/aGST-Tb antibody for 1-hour at room temperature. […] HTRF based SOS1 mediated exchange of GDP to GTP was measured on a microplate reader […] (BMG Labtech) at an excitation wavelength of 337 nm and emission wavelengths of 665 and 620 nm. No-SOS1 reaction or highest control compound concentration was used as blank and % inhibition was calculated and/or IC50 was determined using Sigmoidal dose response (variable slope) equation.

[3] = system: CT-26; test: In vitro cell proliferation assay in KRASG12 cell lines (CT-26); type: cell-based; settings: Mus musculus, CT26; Cell Line CT-26; Cell Titer-Glo, 3 day (2D) or 7 day (3D)
Method: Test 2: In Vitro Cell Proliferation Assay in KRASG12 Cell lines Growth inhibition assays was carried out using 10% FBS supplemented media. Cells were seeded at a desired concentration of 1000-2,000 cells/well in a well plate with desired number of wells. Test compounds at a desired concentration range were added after 24 hours. Growth was assessed using the Cell Titer-Glo (CTG, Cell Signaling) for measuring reduction at 0 h (prior to the addition of the test compound) and 3 day (2D) or 7 day (3D) after the addition of test compound. Absorbance read on a BIO-RAD iMark Microplate or any equivalent microplate reader at a predetermined a wavelength for e.g. 450 nm. Data was be analysed and percent inhibition and/or IC50 for each test compound is calculated accordingly.

[4] = system: AGS cells; test: In vitro cell proliferation assay in AGS cell line; type: cell-based; settings: Homo sapiens; for inhibition at 3 µM: TC1: Test Concentration of 3 uM; for inhibition at 10 µM: TC2: Test Concentration of 10 uM
Method: as §1, §2

SMILES: CN1CCC[C@H]1COc1nc(N2CC3CCC(C2)N3)c2c(c1C#N)CN(c1cccc3cccc(Cl)c13)CC2 [Ex 16, 1-(3,8-diazabicyclo[3.2.1]octan-3-yl)-6-(8-chloronaphthalen-1-yl)-3-(((S)-1-methylpyrrolidin-2-yl)methoxy)-5,6,7,8-tetrahydro-2,6-naphthyridine-4-carbonitrile Hydrochloride]
- inhibition at 3 µM [1]: 50 to 75%
- inhibition at 10 µM [1]: 75 to 100%
- pIC50 [2]: 6.00 to 6.70
- pIC50 [3]: > 5.60
- inhibition at 3 µM [4]: 50 to 75%
- inhibition at 10 µM [4]: 50 to 75%

SMILES: N#Cc1c(OCC23CCCN2C[C@H](F)C3)nc(N2CC3CCC(C2)N3)c2c1CN(c1cccc3cccc(Cl)c13)CC2 (stereo partly drawn) [Ex 17, 1-(3,8-diazabicyclo[3.2.1]octan-3-yl)-6-(8-chloronaphthalen-1-yl)-3-(((2R)-2-fluorotetrahydro-1H-pyrrolizin-7a(5H)-yl)methoxy)-5,6,7,8-tetrahydro-2,6-naphthyridine-4-carbonitrile Hydrochloride]
- inhibition at 3 µM [1]: 25 to 50%
- inhibition at 10 µM [1]: 75 to 100%
- pIC50 [2]: 7.30 to 7.60
- pIC50 [3]: 5.30 to 5.60
- inhibition at 3 µM [4]: 25 to 50%
- inhibition at 10 µM [4]: 75 to 100%

SMILES: N#Cc1c(OCC23CCCN2C[C@H](F)C3)nc(N2CC3CCC(C2)N3)c2c1CN(c1cc(O)cc3ccccc13)CC2 (stereo partly drawn) [Ex 25, 1-(3,8-diazabicyclo[3.2.1]octan-3-yl)-3-(((2R)-2-fluorotetrahydro-1H-pyrrolizin-7a(5H)-yl)methoxy)-6-(3-hydroxynaphthalen-1-yl)-5,6,7,8-tetrahydro-2,6-naphthyridine-4-carbonitrile Hydrochloride]
- inhibition at 3 µM [1]: 25 to 50%
- inhibition at 10 µM [1]: 75 to 100%
- pIC50 [2]: > 7.60
- pIC50 [3]: 5.00 to 5.30
- inhibition at 3 µM [4]: 75 to 100%
- inhibition at 10 µM [4]: 75 to 100%
